Results from patent publication US10517889B2, “Modulators of SMAD7 expression” (Ionis Pharmaceuticals, Inc., priority 2017, dated 2019).
Strand notation (5' to 3'): a small letter for the sugar, then the base; units joined by * are phosphorothioate-linked, units joined directly phosphodiester-linked; [ ] holds rarer units or linkages, { } end groups; capitals alone tell only the bases. k = constrained ethyl (cEt); [5mC] = 5-methylcytosine; d = 2'-deoxy (DNA)

These substances were tested on human SMAD7 mRNA (assay: Antisense inhibition of human SMAD7 mRNA expression in Hep3B cells by 3-10-3 cEt gapmers, 10,000 nM, electroporation (Example 2)). Conditions: Hep3B cells, 10,000 nM antisense oligonucleotide, electroporation, approximately 24 hours, RT-PCR primer probe set RTS5062, relative to untreated control cells.
Type: cell-based
Summary of the method: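 Hep3B cells (20,000 per well) were electroporated with 10,000 nM 16-mer 3-10-3 cEt gapmer (phosphorothioate, 5-methylcytosine). After about 24 h, SMAD7 mRNA was quantified by qRT-PCR with primer probe set RTS5062, normalised to RIBOGREEN total RNA, and expressed as percent inhibition versus untreated cells.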

| Substance | % Inhibition [%] |
| --- | --- |
| 799997 (kA*kT*kG*dA*d[5mC]*d[5mC]*d[5mC]*dA*d[5mC]*dG*dG*dT*dT*kA*kA*kA; antisense) [compound 799997] | 14 |
| 799915 (antisense kG*k[5mC]*kT*dG*dA*d[5mC]*dG*d[5mC]*dG*dG*d[5mC]*dT*dT*k[5mC]*k[5mC]*kT) [compound 799915] | 52 |
| 798893 (kT*kG*kG*d[5mC]*d[5mC]*d[5mC]*d[5mC]*dA*dG*d[5mC]*d[5mC]*d[5mC]*dT*kT*k[5mC]*kA; antisense) [compound 798893] | 77 |
| 800097 (antisense kG*k[5mC]*k[5mC]*dT*d[5mC]*dA*dA*dA*dA*dA*dG*d[5mC]*d[5mC]*kT*k[5mC]*kA) [compound 800097] | 1 |
| 798892 (k[5mC]*k[5mC]*k[5mC]*d[5mC]*dA*dG*d[5mC]*d[5mC]*d[5mC]*dT*dT*d[5mC]*dA*k[5mC]*kA*kA; antisense) [compound 798892] | 39 |
| 800013 (kA*kA*kA*dG*dG*dA*dG*dA*dG*dG*dA*d[5mC]*dT*kT*k[5mC]*kA; antisense) [compound 800013] | 56 |
| 798927 (antisense k[5mC]*kA*kG*d[5mC]*dA*dA*dA*dG*dT*dA*dG*dT*dT*kT*kG*kA) [compound 798927] | 0 |
| 799954 (antisense k[5mC]*kA*kG*dA*dA*dA*dA*dT*dG*d[5mC]*d[5mC]*d[5mC]*dA*k[5mC]*k[5mC]*kA) [compound 799954] | 42 |
| 798825 (k[5mC]*kT*kG*dG*dA*d[5mC]*dA*d[5mC]*dA*dG*dT*dA*dG*kA*kG*k[5mC]; antisense) [compound 798825] | 24 |

Same assay, conditions: Hep3B cells, electroporation with 10,000 nM antisense oligonucleotide, approximately 24 hours, RTS5062, percent inhibition of SMAD7 mRNA relative to untreated control cells

| Substance | % Inhibition [%] |
| --- | --- |
| 790715 (kT*kG*kT*d[5mC]*dA*d[5mC]*d[5mC]*d[5mC]*dG*dT*d[5mC]*dT*dG*kG*kG*k[5mC]; antisense) [compound 790715] | 16 |
| 799765 (antisense kA*kA*kG*d[5mC]*dA*d[5mC]*dG*d[5mC]*dT*dA*dA*dG*dG*kA*kA*kA) [compound 799765] | 23 |
| 799727 (antisense kT*kG*kA*d[5mC]*dA*dG*dT*dA*dG*dG*d[5mC]*dA*dG*kG*k[5mC]*kA) [compound 799727] | 22 |
| 799682 (antisense kG*kG*kT*d[5mC]*d[5mC]*dA*dG*dG*dA*d[5mC]*dT*dG*dG*kT*k[5mC]*kT) [compound 799682] | 55 |
| 799527 (kG*kT*k[5mC]*dA*dA*dA*dG*dG*dA*dG*dG*dT*dT*kT*kG*kG; antisense) [compound 799527] | 4 |

Same assay, conditions: Hep3B cells, electroporation with 10,000 nM antisense oligonucleotide, approximately 24 hours, SMAD7 mRNA by RT-PCR (RTS5062), relative to untreated control cells

| Substance | % Inhibition [%] |
| --- | --- |
| 830104 (kT*kA*kA*dG*d[5mC]*d[5mC]*d[5mC]*dG*d[5mC]*dT*d[5mC]*dT*d[5mC]*kA*kG*k[5mC]; antisense) [compound 830104] | 28 |
| 830091 (kA*kA*kT*dA*d[5mC]*dA*d[5mC]*dA*dA*dG*dA*d[5mC]*d[5mC]*k[5mC]*kT*kG; antisense) [compound 830091] | 37 |
| 798904 (kT*kT*kG*dA*dA*dG*dA*dT*dG*dA*d[5mC]*d[5mC]*dT*k[5mC]*kT*kA; antisense) [compound 798904] | 23 |
| 800009 (kT*kG*k[5mC]*dT*d[5mC]*dA*dT*dG*dA*dA*dT*dG*dA*kA*k[5mC]*kA; antisense) [compound 800009] | 51 |
| 830126 (antisense k[5mC]*kT*k[5mC]*d[5mC]*dG*dA*dG*dG*d[5mC]*dA*d[5mC]*d[5mC]*dA*k[5mC]*kA*kT) [compound 830126] | 34 |
| 799506 (antisense kG*kG*kA*dG*dA*dG*d[5mC]*d[5mC]*d[5mC]*dG*dG*d[5mC]*dT*kA*kA*kG) [compound 799506] | 4 |
| 799356 (kG*kA*kA*dA*dA*dA*dT*dT*d[5mC]*dA*d[5mC]*d[5mC]*dA*kA*kA*k[5mC]; antisense) [compound 799356] | 23 |
| 799258 (antisense kG*k[5mC]*k[5mC]*d[5mC]*d[5mC]*dA*dA*dA*dA*d[5mC]*dT*d[5mC]*d[5mC]*kA*kA*kA) [compound 799258] | 4 |
| 830058 (kG*kG*kT*dA*dG*dG*d[5mC]*dA*d[5mC]*dA*dT*d[5mC]*dA*kT*k[5mC]*kA; antisense) [compound 830058] | 22 |
| 800083 (antisense kT*kG*k[5mC]*dA*dG*dA*d[5mC]*d[5mC]*dG*dG*dT*dA*dT*kT*kA*kA) [compound 800083] | 11 |
| 830063 (kT*k[5mC]*k[5mC]*d[5mC]*dT*dA*d[5mC]*d[5mC]*dA*d[5mC]*d[5mC]*d[5mC]*d[5mC]*kT*kG*kT; antisense) [compound 830063] | 37 |
| 799960 (antisense kA*kA*kA*d[5mC]*dA*dG*dG*dG*dT*dT*d[5mC]*d[5mC]*d[5mC]*k[5mC]*k[5mC]*kA) [compound 799960] | 8 |
| 830080 (kT*kA*kT*dA*d[5mC]*d[5mC]*d[5mC]*dT*dG*d[5mC]*dA*d[5mC]*dT*kT*kT*k[5mC]; antisense) [compound 830080] | 32 |
| 800086 (antisense kA*kG*k[5mC]*dA*dG*d[5mC]*dA*dG*d[5mC]*d[5mC]*d[5mC]*dT*dG*kT*kA*k[5mC]) [compound 800086] | 40 |

Same assay, conditions: Hep3B cells, electroporation with 10,000 nM antisense oligonucleotide, approximately 24 hours, primer probe set RTS5062, relative to untreated control cells

| Substance | % inhibition of SMAD7 mRNA expression [%] | % Inhibition [%] |
| --- | --- | --- |
| 799324 (antisense kT*k[5mC]*k[5mC]*d[5mC]*dA*dG*dG*dA*dG*dG*dG*dT*dA*kT*kG*k[5mC]) [compound 799324] | 6 |  |
| 799023 (kT*kG*kG*dG*dA*d[5mC]*dT*dG*d[5mC]*dA*dA*dA*d[5mC]*k[5mC]*kT*k[5mC]; antisense) [compound 799023] | 42 |  |
| 799361 (kG*kT*k[5mC]*d[5mC]*dT*dA*dT*dT*dT*dG*dG*dT*dT*k[5mC]*k[5mC]*k[5mC]; antisense) [compound 799361] | 77 |  |
| 798726 (antisense k[5mC]*kA*k[5mC]*d[5mC]*dT*d[5mC]*dG*d[5mC]*dA*d[5mC]*d[5mC]*dG*d[5mC]*k[5mC]*kT*kT) [compound 798726] | 7 |  |
| 790613 (k[5mC]*kA*kT*dT*dT*dA*dA*dA*d[5mC]*d[5mC]*dT*dT*dT*kG*kT*kA; antisense) [compound 790613] | 0 |  |
| 798708 (antisense k[5mC]*kG*k[5mC]*dT*d[5mC]*dG*dG*d[5mC]*dT*dG*dT*d[5mC]*d[5mC]*kG*kT*k[5mC]) [compound 798708] | 45 |  |
| 799109 (antisense k[5mC]*kA*kG*dT*dG*d[5mC]*dT*dG*dA*dG*d[5mC]*dT*dG*kG*kT*kT) [compound 799109] | 48 |  |
| 799040 (kA*kG*k[5mC]*dT*dG*d[5mC]*dT*dG*dG*dG*dA*d[5mC]*d[5mC]*k[5mC]*k[5mC]*kA; antisense) [compound 799040] |  | 51 |
| 799231 (kG*k[5mC]*kT*dA*dG*dG*dT*dG*dA*dT*dA*dA*d[5mC]*kA*k[5mC]*k[5mC]; antisense) [compound 799231] | 8 |  |
| 798983 (antisense k[5mC]*k[5mC]*k[5mC]*d[5mC]*dT*dT*d[5mC]*dA*dT*dA*d[5mC]*dA*d[5mC]*kT*kG*kT) [compound 798983] | 0 |  |

Same assay, conditions: Hep3B cells, electroporation, 10,000 nM antisense oligonucleotide, approximately 24 hours, RTS5062, relative to untreated control cells

| Substance | % inhibition of SMAD7 mRNA expression [%] |
| --- | --- |
| 799518 (antisense kA*k[5mC]*kT*dT*dA*dA*dG*dT*dA*dG*dA*dG*d[5mC]*kA*kA*kA) [compound 799518] | 38 |
| 799654 (antisense kG*k[5mC]*kT*dG*dA*dA*dT*dA*dA*d[5mC]*d[5mC]*dT*dA*k[5mC]*kA*kA) [compound 799654] | 22 |
| 799286 (antisense kG*k[5mC]*kT*d[5mC]*dA*dG*dG*d[5mC]*dT*dT*d[5mC]*dA*d[5mC]*kT*kG*k[5mC]) [compound 799286] | 0 |

Same assay, conditions: Hep3B cells, electroporation, 10,000 nM, approximately 24 hours; 3-10-3 cEt gapmers targeting SEQ ID NO: 3 and 4

| Substance | % inhibition of SMAD7 mRNA expression [%] |
| --- | --- |
| 790634 (kA*kG*kT*d[5mC]*dA*dG*dT*dT*dG*dG*dT*dT*dT*kG*kA*kG; antisense) [compound 790634] | 0 |

Same assay, conditions: SMAD7 mRNA, Hep3B cells, 10,000 nM antisense oligonucleotide, electroporation, approximately 24 hours, primer probe set RTS5062, relative to untreated control cells

| Substance | % Inhibition [%] |
| --- | --- |
| 772711 (kA*kA*kA*d[5mC]*dA*d[5mC]*d[5mC]*dA*dA*dT*d[5mC]*dT*dT*kG*kT*kG; antisense) [compound 772711] | 0 |
| 829792 (k[5mC]*kT*kT*d[5mC]*d[5mC]*d[5mC]*dG*dT*dA*dA*dG*dA*dT*kT*k[5mC]*kA; antisense) [compound 829792] | 39 |
| 800798 (antisense k[5mC]*k[5mC]*kT*dG*dG*dA*dG*dT*d[5mC]*d[5mC]*dG*dG*dG*kT*kT*kG) [compound 800798] | 36 |
| 790604 (kT*kA*k[5mC]*dG*dA*dG*dT*dG*dT*dA*dT*dG*dA*kG*kT*kT; antisense) [compound 790604] | 30 |

Same assay, conditions: SMAD7 mRNA, Hep3B cells, electroporation with 10,000 nM antisense oligonucleotide, approximately 24 hours, primer probe set RTS5062, relative to untreated control cells

| Substance | % Inhibition [%] |
| --- | --- |
| 829895 (antisense kT*k[5mC]*kA*d[5mC]*dA*dA*dA*dG*d[5mC]*dT*dG*dA*dT*k[5mC]*kT*kG) [compound 829895] | 37 |
| 829925 (kA*kT*kG*d[5mC]*dT*d[5mC]*dA*dT*dT*dG*dA*dG*d[5mC]*kT*kA*kA; antisense) [compound 829925] | 37 |
| 829882 (antisense kA*kG*kG*d[5mC]*dT*dG*dT*dA*d[5mC]*dG*d[5mC]*d[5mC]*dT*kT*k[5mC]*kT) [compound 829882] | 3 |
